The subject of this assay is Bacillus subtilis ATCC 6633. In words: Test for antibacterial activity (paper disk, diameter of inhibitory zone, before and after incubation in rat liver/kidney homogenate). Type of assay: cell-based. As to conditions: 200 mcq/ml, 8 mm paper disk. How it is done:
Each of the test compounds shown in the following table was dissolved in a concentration of 200 mcq/ml in a homogenate of a 10% physiological saline solution of an organ of a rat, and incubated at 37° C. for 2 hours. An enzymatic reaction was stopped by adding an equal amount of ethanol. The antibacterial activity of the test compound before incubation was compared with that after incubation. The incubation was carried out in an equal amount mixture of a liver homogenate and a kidney homogenate. The antibacterial activity was measured by a paper disk having a diameter of 8 mm using Bacillus subtilis ATCC 6633 as a test organism, and shown by the diameter of the resulting inhibitory zone.

Where [1] appears, read: ATCC6633, after incubation at 37° C. for 2 hours in rat liver homogenate and kidney homogenate, read-out: Diameter of the inhibitory zone, after incubation.
Setting [2] is: ATCC6633, before incubation, read-out: Diameter of the inhibitory zone, before incubation.

The values below come from patent publication US4855287A, “Aminoglycoside compounds, processes for production thereof, and pharamaceutical composition containing the same” (Kowa Company, Ltd., priority 1985, dated 1989).

Read-outs that look alike come from different tables or passages of the source.

Regarding `CC(=O)NCCCC[C@H](N)C(=O)NCC(=O)N(C)C1C(O)CC(N)C(OC2OC(C(C)N)CCC2N)C1O` (stereo partly drawn) [Example 1, 2"-N-(N^ε -acetyl-L-lysyl)-5-de-O-methyl-KA-6606I], the zone of inhibition at 200 µg/mL was 25.1 mm under setting [1] and 14.1 mm under setting [2].

Consider `CCCCCCCCCC(=O)NCCCC[C@H](N)C(=O)NCC(=O)N(C)C1C(O)CC(N)C(OC2OC(C(C)N)CCC2N)C1O` (stereo partly drawn) [Example 2, 2"-N-(N^ε -decanoyl-L-lysyl)-5-de-O-methyl-KA-6606I], for which the zone of inhibition at 200 µg/mL under setting [1] worked out at 22 mm and the zone of inhibition at 200 µg/mL under setting [2] was determined as 15.9 mm.

Take `CCCCCCCCCCCCCCCCCC(=O)NCCCC[C@H](N)C(=O)NCC(=O)N(C)C1C(O)CC(N)C(OC2OC(C(C)N)CCC2N)C1O` (stereo partly drawn) [Example 3, 2"-N-(N^ε -stearoyl-L-lysyl)-5-de-O-methyl-KA-6606I]: the zone of inhibition at 200 µg/mL is, setting by setting: under setting [1], 15.5 mm; under setting [2], 14 mm.

As to `CC(N)C1CCC(N)C(OC2C(N)CC(O)C(N(C)C(=O)CNC(=O)[C@@H](N)CCCCNC(=O)CC[C@@H](C)[C@H]3CC[C@H]4[C@@H]5CC[C@@H]6C[C@H](O)CC[C@]6(C)[C@H]5C[C@H](O)[C@]34C)C2O)O1` (stereo partly drawn) [Example 4, 2"-N-(N^ε -deoxycholyl-L-lysyl)-5-de-O-methyl-KA-6606I], the zone of inhibition at 200 µg/mL is, setting by setting: under setting [1], 19.8 mm; under setting [2], 12.7 mm.

As to `CCCCCCCCCC(=O)NCC(=O)NCCCC[C@H](N)C(=O)NCC(=O)N(C)C1C(O)CC(N)C(OC2OC(C(C)N)CCC2N)C1O` (some centres unmarked) [Example 5], the zone of inhibition at 200 µg/mL was 21 mm under setting [1] and 15.5 mm under setting [2].

Consider `CCCCCCCCCCCCCCCCCC(=O)NCC(=O)NCCCC[C@H](N)C(=O)NCC(=O)N(C)C1C(O)CC(N)C(OC2OC(C(C)N)CCC2N)C1O` (stereo partly drawn) [Example 6, 2"-N-[N^ε -(N-stearoylglysyl)-L-lysyl]-5-de-O-methyl-KA-6606I], for which the zone of inhibition at 200 µg/mL under setting [1] is 16.6 mm and the zone of inhibition at 200 µg/mL under setting [2] came to 10.5 mm.

As for `CCCCCCCCOC(=O)NCCCC[C@H](N)C(=O)NCC(=O)N(C)C1C(O)CC(N)C(OC2OC(C(C)N)CCC2N)C1O` (stereo partly drawn) [Example 7, 2"-N-(N^ε -octyloxycarbonyl-L-lysyl)-5-de-O-methyl-KA-6606I], the zone of inhibition at 200 µg/mL reads like this: under setting [1], 20.7 mm; under setting [2], 10.5 mm.

With `COC(=O)C[C@H](N)C(=O)NCC(=O)N(C)C1C(O)CC(N)C(OC2OC(C(C)N)CCC2N)C1O` (stereo partly drawn) [Example 8, 2"-N-(β-O-methyl-L-aspartyl)-5-de-O-methyl-KA-666I], the zone of inhibition at 200 µg/mL is 23.9 mm under setting [1] and 15.9 mm under setting [2].

`CC(N)C1CCC(N)C(OC2C(N)CC(O)C(N(C)C(=O)CNC(=O)[C@@H](N)CC(=O)OC(C)(C)C)C2O)O1` (stereo partly drawn) [Example 9, 2"-N-(β-O-tert.-butyl-L-aspartyl)-5-de-O-methyl-KA-6606I]: the zone of inhibition at 200 µg/mL reads like this: under setting [1], 23.2 mm; under setting [2], 12.7 mm.

As to `CCCCCCCCOC(=O)C[C@H](N)C(=O)NCC(=O)N(C)C1C(O)CC(N)C(OC2OC(C(C)N)CCC2N)C1O` (stereo partly drawn) [Example 10, 2"-N-(β-O-octyl-L-aspartyl)-5-de-O-methyl-KA-6606I], the zone of inhibition at 200 µg/mL was determined as 21.1 mm under setting [1] and 14.2 mm under setting [2].

In the case of `CC(N)C1CCC(N)C(OC2C(N)CC(O)C(N(C)C(=O)CNC(=O)[C@@H](N)CC(=O)Oc3ccccc3)C2O)O1` (stereo partly drawn) [Example 11, 2"-N-(β-O-phenyl-L-aspartyl)-5-de-O-methyl-KA-6606I], the zone of inhibition at 200 µg/mL is, setting by setting: under setting [1], 19 mm; under setting [2], 14 mm.

Consider `CC(N)C1CCC(N)C(OC2C(N)CC(O)C(N(C)C(=O)CNC(=O)[C@@H](N)CC(=O)Oc3cccc4ccccc34)C2O)O1` (stereo partly drawn) [Example 12, 2"-N-[β-O-(α-naphthyl)-L-aspartyl]-5-de-O-methyl-KA-6606I], for which the zone of inhibition at 200 µg/mL runs as follows: under setting [1], 18.3 mm; under setting [2], 12.6 mm.

For the molecule `CCCCCCCCCCCCCCCCCC(=O)OCC(O)COC(=O)C[C@H](N)C(=O)NCC(=O)N(C)C1C(O)CC(N)C(OC2OC(C(C)N)CCC2N)C1O` (stereo partly drawn) [Example 13, 2"-N-[β-O-(3-stearoyloxy-2-hydroxypropyl)-L-aspartyl]-5-de-O-methyl-KA-6606I], the zone of inhibition at 200 µg/mL is, setting by setting: under setting [1], 18.8 mm; under setting [2], 13.7 mm.

Regarding `CCCCCCCCCC(=O)OCCOC(=O)CC[C@H](N)C(=O)NCC(=O)N(C)C1C(O)CC(N)C(OC2OC(C(C)N)CCC2N)C1O` (stereo partly drawn) [Example 15, 2"-N-[γ-O-(2-decanoyloxyethyl)-L-glutamyl]-5-de-O-methyl-KA-6606I], the zone of inhibition at 200 µg/mL by setting is: under setting [1], 24.4 mm; under setting [2], 13.9 mm.

On to `CCCCCCCCCC(=O)OCC(COC(=O)CCCCCCCCC)OC(=O)CCC(N)C(=O)NCC(=O)N(C)C1C(O)CC(N)C(OC2OC(C(C)N)CCC2N)C1O` [Example 16, 2"-N-{γ-O-[2-(1,3-bis-decanoyloxy)propyl]-L-glutamyl}-5-de-O-methyl-KA-6606I], for which the zone of inhibition at 200 µg/mL by setting is: under setting [1], 17.5 mm; under setting [2], 12.5 mm.

For the molecule `CCCCCCCCCC(=O)OCC(COC(=O)CC[C@H](N)C(=O)NCC(=O)N(C)C1C(O)CC(N)C(OC2OC(C(C)N)CCC2N)C1O)OC(=O)CCCCCCCCC` (stereo partly drawn) [Example 17, 2"-N-[γ-O-(2,3-bis-decanoyloxypropyl)-L-glutamyl]-5-de-O-methyl-KA-66606I], the zone of inhibition at 200 µg/mL stood at 19.7 mm under setting [1] and 10.6 mm under setting [2].

On to `CCCCCCCCCC(=O)OCCCOC(=O)CC[C@H](N)C(=O)NCC(=O)N(C)C1C(O)CC(N)C(OC2OC(C(C)N)CCC2N)C1O` (stereo partly drawn) [Example 18, 2"-N-[γ-O-(3-decanoyloxypropyl)-L-glutamyl]-5-de-O-methyl-KA-6606I], for which the zone of inhibition at 200 µg/mL was 23.9 mm under setting [1] and 16.8 mm under setting [2].

Consider `CCCCCCCCCCCCCCCCCC(=O)OCCCOC(=O)CC[C@H](N)C(=O)NCC(=O)N(C)C1C(O)CC(N)C(OC2OC(C(C)N)CCC2N)C1O` (stereo partly drawn) [Example 19, 2"-N-[γ-O-(3-stearoyloxypropyl)-L-glutamyl]-5-de-O-methyl-KA-6606I], for which the zone of inhibition at 200 µg/mL came out at 22.7 mm under setting [1] and 13.7 mm under setting [2].

Regarding `CC(N)C1CCC(N)C(OC2C(N)CC(O)C(N(C)C(=O)CNC(=O)[C@@H](N)CCC(=O)OCCCCOC(=O)c3cccc4ccccc34)C2O)O1` (stereo partly drawn) [Example 21, 2"-N-{γ-O-[4-(α-naphthoyloxy)butyl]-L-glutamyl}-5-de-O-methyl-KA-6606I], the zone of inhibition at 200 µg/mL is 22.6 mm under setting [1] and 15.1 mm under setting [2].

As to `CCCCCCCCCC(=O)OCC(CCOC(=O)CC[C@H](N)C(=O)NCC(=O)N(C)C1C(O)CC(N)C(OC2OC(C(C)N)CCC2N)C1O)OC(=O)CCCCCCCCC` (stereo partly drawn) [Example 22, 2"-N-{γ-[3,4-bis-(decanoyloxy)butyl]-L-glutamyl}-5-de-O-methyl-KA-6606I], the zone of inhibition at 200 µg/mL under setting [1] stood at 18.3 mm and the zone of inhibition at 200 µg/mL under setting [2] stood at 10.7 mm.

As to `CCCCCCCCCC(=O)OCC(CCCCOC(=O)CC[C@H](N)C(=O)NCC(=O)N(C)C1C(O)CC(N)C(OC2OC(C(C)N)CCC2N)C1O)OC(=O)CCCCCCCCC` (stereo partly drawn) [Example 23, 2"-N-{γ-[5,6-bis-(decanoyloxy)hexyl]-L-glutamyl}-5-de-O-methyl-KA-6606I], the zone of inhibition at 200 µg/mL stood at 19.5 mm under setting [1] and 10.5 mm under setting [2].

In the case of `CCCCCCCCCCCCCCCCCC(=O)OCCCCOC(=O)CC[C@H](N)C(=O)NCC(=O)N(C)C1C(O)CC(N)C(OC2OC(C(C)N)CCC2N)C1O` (stereo partly drawn) [Example 24, 2"-N-[γ-O-(4-stearoyloxybutyl)-L-glutamyl]-5-de-O-methyl-KA-6606I], the zone of inhibition at 200 µg/mL reads like this: under setting [1], 22.6 mm; under setting [2], 16.2 mm.

For `CC(N)C1CCC(N)C(OC2C(N)CC(O)C(N(C)C(=O)CNC(=O)[C@@H](N)CCC(=O)OCCCCOC(=O)CC[C@@H](C)[C@H]3CC[C@H]4[C@@H]5CC[C@@H]6C[C@H](O)CC[C@]6(C)[C@H]5C[C@H](O)[C@]34C)C2O)O1` (stereo partly drawn) [Example 26, 2"-N-[γ-O-(4-deoxycholyloxybutyl)-L-glutamyl]-5-de-O-methyl-KA-6606I], the zone of inhibition at 200 µg/mL reads like this: under setting [1], 21.8 mm; under setting [2], 14.8 mm.

Take `CCCCCCCCCC(=O)NCCCOC(=O)CC[C@H](N)C(=O)NCC(=O)N(C)C1C(O)CC(N)C(OC2OC(C(C)N)CCC2N)C1O` (stereo partly drawn) [Example 28, 2"-N-[γ-O-(3-decanoylaminopropyl)-L-glutamyl]-5-de-O-methyl-KA-6606I]: the zone of inhibition at 200 µg/mL is, setting by setting: under setting [1], 23.9 mm; under setting [2], 14.6 mm.

As to `CCCNC(=O)CC[C@H](N)C(=O)NCC(=O)N(C)C1C(O)CC(N)C(OC2OC(C(C)N)CCC2N)C1O` (stereo partly drawn) [Example 29, 2"-N-(N^γ -propyl-L-glutaminyl)-5-de-O-methyl-KA-6606I], the zone of inhibition at 200 µg/mL is 24.6 mm under setting [1] and 15.1 mm under setting [2].

For `CCCCCCNC(=O)CC[C@H](N)C(=O)NCC(=O)N(C)C1C(O)CC(N)C(OC2OC(C(C)N)CCC2N)C1O` (stereo partly drawn) [Example 30, 2"-N-(N^γ-hexyl-L-glutaminyl)-5-de-O-methyl-KA-6606I], the zone of inhibition at 200 µg/mL turned out to be 19.8 mm under setting [1] and 15 mm under setting [2].

Consider `CCCCCCCCNC(=O)CC[C@H](N)C(=O)NCC(=O)N(C)C1C(O)CC(N)C(OC2OC(C(C)N)CCC2N)C1O` (stereo partly drawn) [Example 31, 2"-N-(N^γ-octyl-L-glutaminyl)-5-de-O-methyl-KA-6606I], for which the zone of inhibition at 200 µg/mL runs as follows: under setting [1], 19 mm; under setting [2], 15.3 mm.

`CCCCCCCCCCNC(=O)CC[C@H](N)C(=O)NCC(=O)N(C)C1C(O)CC(N)C(OC2OC(C(C)N)CCC2N)C1O` (stereo partly drawn) [Example 32, 2"-N-(N^γ -decyl-L-glutaminyl)-5-de-O-methyl-KA-6606I]: the zone of inhibition at 200 µg/mL is, setting by setting: under setting [1], 19 mm; under setting [2], 14.1 mm.
